Results as given in patent publication US9975878B2, “Substituted triazine BMI-1 inhibitors” (PTC Therapeutics, Inc., priority 2013, dated 2018).

Tested on: Bmi-1 protein
Assay: Sandwich ELISA Assay: Bmi-1 protein level in HT-1080 cells treated with test compounds
Assay type: cell-based
In short: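 HT-1080 cells exposed to compounds (final DMSO 0.5%) for 40-48 h at 37° C, 5% CO2, then lysed. Bmi-1 quantified by sandwich ELISA (mouse anti-Bmi-1 capture, rabbit anti-Bmi-1 detection, HRP anti-rabbit, TMB), read at OD450 with OD570 reference, against recombinant GST-Bmi-1 standard curve (0-8000 pg/mL).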

Row | SMILES | EC50 [nM]
1 | Cc1nc2c(F)cccc2n1-c1nc(N)nc(Nc2ccc(OC(F)F)cc2)n1 [Cpd 96, N-[4-(difluoromethoxy)phenyl]-6-(4-fluoro-2-methyl-1H-benzimidazol-1-yl)-1,3,5-triazine-2,4-diamine] | 10 to 100
2 | CCc1nc2ccc(F)cc2n1-c1nc(N)nc(Nc2ccc(OC(F)F)cc2)n1 [Cpd 56, N-[4-(difluoromethoxy)phenyl]-6-(2-ethyl-6-fluoro-1H-benzimidazol-1-yl)-1,3,5-triazine-2,4-diamine] | 10 to 100
3 | CCc1nc2c(F)cc(F)cc2n1-c1nc(N)nc(Nc2ccc(OC)cc2)n1 [Cpd 188, 6-(2-ethyl-4,6-difluoro-1H-benzimidazol-1-yl)-N-(4-methoxyphenyl)-1,3,5-triazine-2,4-diamine] | 1 to 10
4 | Nc1nc(Nc2ccc(C(F)(F)F)cc2)nc(-c2c(C(F)(F)F)nc3ccccn23)n1 [Cpd 61, 6-[2-(trifluoromethyl)imidazo[1,2-a]pyridin-3-yl]-N-[4-(trifluoromethyl)phenyl]-1,3,5-triazine-2,4-diamine] | 10 to 100
5 | Nc1nc(Nc2ccc(Br)cc2)nc(-n2c(C3CC3)nc3cc(F)ccc32)n1 [Cpd 222, N-(4-bromophenyl)-6-(2-cyclopropyl-5-fluoro-1H-benzimidazol-1-yl)-1,3,5-triazine-2,4-diamine] | 10 to 100
6 | COc1ccc(Nc2cnnc(-n3c(C4CC4)nc4ccccc43)n2)cc1 [Cpd 146, 3-(2-cyclopropyl-1H-benzimidazol-1-yl)-N-(4-methoxyphenyl)-1,2,4-triazin-5-amine] | 1 to 10
7 | CCc1nc2ccccc2n1-c1nncc(Nc2ccc(OC(F)F)cc2)n1 [Cpd 100, N-[4-(difluoromethoxy)phenyl]-3-(2-ethyl-1H-benzimidazol-1-yl)-1,2,4-triazin-5-amine] | 10 to 100
8 | Nc1nc(Nc2ccc(OC(F)F)c(F)c2)nc(-n2c(C3CC3)nc3c(F)cccc32)n1 [Cpd 87, 6-(2-cyclopropyl-4-fluoro-1H-benzimidazol-1-yl)-N-[4-(difluoromethoxy)-3-fluorophenyl]-1,3,5-triazine-2,4-diamine] | 10 to 100
9 | Cc1nc2cc(F)ccc2n1-c1nc(N)nc(Nc2ccc(OC(F)F)c(F)c2)n1 [Cpd 54, N-[4-(difluoromethoxy)-3-fluorophenyl]-6-(5-fluoro-2-methyl-1H-benzimidazol-1-yl)-1,3,5-triazine-2,4-diamine] | 100 to 3000
10 | CCc1nc2ccccc2n1-c1cnnc(Nc2ccc(C(F)(F)F)cc2)n1 [Cpd 124, 5-(2-ethyl-1H-benzimidazol-1-yl)-N-[4-(trifluoromethyl)phenyl]-1,2,4-triazin-3-amine] | 100 to 3000
11 | Nc1nc(Nc2ccc(C(F)(F)F)cc2)nc(-n2c(CO)nc3ccccc32)n1 [Cpd 118, [1-(4-amino-6-{[4-(trifluoromethyl)phenyl]amino}-1,3,5-triazin-2-yl)-1H-benzimidazol-2-yl]methanol] | 100 to 3000
12 | CCc1nc2ccc(F)cc2n1-c1nc(N)nc(Nc2ccc(C)cc2)n1 [Cpd 169, 6-(2-ethyl-6-fluoro-1H-benzimidazol-1-yl)-N-(4-methylphenyl)-1,3,5-triazine-2,4-diamine] | 1 to 10
13 | Cc1nc2cc(Cl)ccc2n1-c1nc(N)nc(Nc2ccc(OC(F)F)cc2)n1 [Cpd 80, 6-(5-chloro-2-methyl-1H-benzimidazol-1-yl)-N-[4-(difluoromethoxy)phenyl]-1,3,5-triazine-2,4-diamine] | 100 to 3000
14 | CCc1nc2ccccc2n1-c1nc(N)nc(Nc2ccc(Cl)c(F)c2)n1 [Cpd 198, N-(4-chloro-3-fluorophenyl)-6-(2-ethyl-1H-benzimidazol-1-yl)-1,3,5-triazine-2,4-diamine] | 10 to 100
15 | Cc1nc2ncc(Cl)cc2n1-c1nc(N)nc(Nc2ccc(OC(F)F)c(F)c2)n1 [Cpd 41, 6-(6-chloro-2-methyl-1H-imidazo[4,5-b]pyridin-1-yl)-N-[4-(difluoromethoxy)-3-fluorophenyl]-1,3,5-triazine-2,4-diamine] | 10 to 100
16 | CCc1nc2ccccc2n1-c1nc(N)nc(Nc2ccc(Br)cc2)n1 [Cpd 207, N-(4-bromophenyl)-6-(2-ethyl-1H-benzimidazol-1-yl)-1,3,5-triazine-2,4-diamine] | 1 to 10
17 | Cc1nc2ccc(F)cc2n1-c1nc(N)nc(Nc2ccc(OC(F)(F)F)cc2)n1 [Cpd 172, 6-(6-fluoro-2-methyl-1H-benzimidazol-1-yl)-N-[4-(trifluoromethoxy)phenyl]-1,3,5-triazine-2,4-diamine] | 100 to 3000
18 | COc1ccc(Nc2nc(N)nc(-n3c(C4CC4)nc4c(F)cccc43)n2)cc1 [Cpd 182, 6-(2-cyclopropyl-4-fluoro-1H-benzimidazol-1-yl)-N-(4-methoxyphenyl)-1,3,5-triazine-2,4-diamine] | 1 to 10
19 | CCc1nc2ccc(F)cc2n1-c1nc(N)nc(Nc2ccc(Cl)cc2)n1 [Cpd 170, N-(4-chlorophenyl)-6-(2-ethyl-6-fluoro-1H-benzimidazol-1-yl)-1,3,5-triazine-2,4-diamine] | 10 to 100
20 | Cc1nc2ccccc2n1-c1nc(N)nc(Nc2ccc(C(F)(F)F)cc2)n1 [Cpd 2, 6-(2-methyl-1H-benzimidazol-1-yl)-N-[4-(trifluoromethyl)phenyl]-1,3,5-triazine-2,4-diamine] | 10 to 100

Row | SMILES | EC50 [nM]
21 | Nc1nc(Nc2ccc(OC(F)F)cc2)nc(-n2c(C3CC3)nc3cc(F)ccc32)n1 [Cpd 66, 6-(2-cyclopropyl-5-fluoro-1H-benzimidazol-1-yl)-N-[4-(difluoromethoxy)phenyl]-1,3,5-triazine-2,4-diamine] | 10 to 100
22 | CSc1ccc(Nc2nc(N)nc(-n3c(C)nc4ccc(F)cc43)n2)cc1 [Cpd 226, 6-(6-fluoro-2-methyl-1H-benzimidazol-1-yl)-N-[4-(methylsulfanyl)phenyl]-1,3,5-triazine-2,4-diamine] | 10 to 100
23 | Cc1nc2cc(F)ccc2n1-c1nc(N)nc(Nc2ccc(C(F)(F)F)nc2)n1 [Cpd 52, 6-(5-fluoro-2-methyl-1H-benzimidazol-1-yl)-N-[6-(trifluoromethyl)pyridin-3-yl]-1,3,5-triazine-2,4-diamine] | 100 to 3000
24 | Cc1nc2ccc(Cl)cc2n1-c1nc(N)nc(Nc2ccc(C(F)(F)F)cc2)n1 [Cpd 75, 6-(6-chloro-2-methyl-1H-benzimidazol-1-yl)-N-[4-(trifluoromethyl)phenyl]-1,3,5-triazine-2,4-diamine] | 10 to 100
25 | Cc1ccc(Nc2nc(N)nc(-n3c(C)nc4c(F)cccc43)n2)cc1 [Cpd 180, 6-(4-fluoro-2-methyl-1H-benzimidazol-1-yl)-N-(4-methylphenyl)-1,3,5-triazine-2,4-diamine] | 1 to 10
26 | Cc1nc2ncc(Br)cc2n1-c1nc(N)nc(Nc2ccc(OC(F)F)cc2)n1 [Cpd 38, 6-(6-bromo-2-methyl-1H-imidazo[4,5-b]pyridin-1-yl)-N-[4-(difluoromethoxy)phenyl]-1,3,5-triazine-2,4-diamine] | 10 to 100
27 | CCc1nc2ccc(F)cc2n1-c1cnnc(Nc2ccc(OC(F)F)cc2)n1 [Cpd 137, N-[4-(difluoromethoxy)phenyl]-5-(2-ethyl-6-fluoro-1H-benzimidazol-1-yl)-1,2,4-triazin-3-amine] | 100 to 3000
28 | Cc1nc2ncccc2n1-c1nc(N)nc(Nc2ccc(C(F)(F)F)cc2)n1 [Cpd 17, 6-(2-methyl-1H-imidazo[4,5-b]pyridin-1-yl)-N-[4-(trifluoromethyl)phenyl]-1,3,5-triazine-2,4-diamine] | 100 to 3000
29 | Nc1nc(Nc2ccc(Br)cc2)nc(-n2c(C3CC3)nc3c(F)cccc32)n1 [Cpd 220, N-(4-bromophenyl)-6-(2-cyclopropyl-4-fluoro-1H-benzimidazol-1-yl)-1,3,5-triazine-2,4-diamine] | 10 to 100
30 | CCc1nc2ccccc2n1-c1cnnc(Nc2ccc(OC(F)F)cc2)n1 [Cpd 203, N-[4-(difluoromethoxy)phenyl]-5-(2-ethyl-1H-benzimidazol-1-yl)-1,2,4-triazin-3-amine] | 10 to 100
31 | Cc1nc2ccc(F)cc2n1-c1nc(N)nc(Nc2ccc(C(F)(F)F)nc2)n1 [Cpd 53, 6-(6-fluoro-2-methyl-1H-benzimidazol-1-yl)-N-[6-(trifluoromethyl)pyridin-3-yl]-1,3,5-triazine-2,4-diamine] | 10 to 100
32 | Cc1nc2ccccc2n1-c1nc(N)nc(Nc2ccc(N3CCOCC3)cc2)n1 [Cpd 135, 6-(2-methyl-1H-benzimidazol-1-yl)-N-[4-(morpholin-4-yl)phenyl]-1,3,5-triazine-2,4-diamine] | 100 to 3000
33 | CCc1nc2c(F)cccc2n1-c1nc(N)nc(Nc2ccc(SC)cc2)n1 [Cpd 227, 6-(2-ethyl-4-fluoro-1H-benzimidazol-1-yl)-N-[4-(methylsulfanyl)phenyl]-1,3,5-triazine-2,4-diamine] | 1 to 10
34 | Cc1nc2ccccc2n1-c1nnc(N)c(Nc2ccc(C(F)(F)F)cc2)n1 [Cpd 143, 3-(2-methyl-1H-benzimidazol-1-yl)-N^5-[4-(trifluoromethyl)phenyl]-1,2,4-triazine-5,6-diamine] | 100 to 3000
35 | FC(F)(F)c1ccc(Nc2cnnc(-n3c(C4CC4)nc4ccccc43)n2)cc1 [Cpd 101, 3-(2-cyclopropyl-1H-benzimidazol-1-yl)-N-[4-(trifluoromethyl)phenyl]-1,2,4-triazin-5-amine] | 10 to 100
36 | CCc1nc2c(F)cc(F)cc2n1-c1nc(N)nc(Nc2ccc(C)cc2)n1 [Cpd 189, 6-(2-ethyl-4,6-difluoro-1H-benzimidazol-1-yl)-N-(4-methylphenyl)-1,3,5-triazine-2,4-diamine] | 10 to 100
37 | Cc1nc2c(F)cc(F)cc2n1-c1nc(N)nc(Nc2ccc(Cl)c(F)c2)n1 [Cpd 199, N-(4-chloro-3-fluorophenyl)-6-(4,6-difluoro-2-methyl-1H-benzimidazol-1-yl)-1,3,5-triazine-2,4-diamine] | 100 to 3000
38 | Cc1nc2ccccc2n1-c1nc(N)nc(Nc2ccc(C(F)(F)F)c(F)c2)n1 [Cpd 5, N-[3-fluoro-4-(trifluoromethyl)phenyl]-6-(2-methyl-1H-benzimidazol-1-yl)-1,3,5-triazine-2,4-diamine] | 100 to 3000
39 | CCc1nc2ccccc2n1-c1nc(Nc2ccc(C(F)(F)F)cc2)c[n+]([O-])n1 [Cpd 139, 3-(2-ethyl-1H-benzimidazol-1-yl)-N-[4-(trifluoromethyl)phenyl]-1,2,4-triazin-5-amine 1-oxide] | 10 to 100
